Test results from patent US20110130425A1, “Use of H3 Histaminergic Agonists for the Treatment of Addiction to Drugs of Abuse” (priority 2009, published 2011).

Experiments:
[1] = system: reinforcement produced by cocaine; test: Reinforcement phase: cocaine self-administration dose/response; assay type: in vivo, rat; conditions: L-histidine 500 mg/kg single dose one hour before reinforcement; even at 0.03 mg/kg cocaine; rats
[2] = system: dopamine release; test: Nicotine stimulation of dopamine release in striatal miniprisms; assay type: cell-based, Sprague-Dawley rat; conditions: 0.5 mM L-histidine preincubation; 100 nM nicotine, 15 mM K+; rat striatal miniprisms; vs controls
Method: One male Sprague-Dawley rat obtained from Charles-River weighing 200-250 g is used. The rat brain is rapidly removed and placed in ice-cold oxygen-saturated (O2/CO2:95%/5%) Krebs bicarbonate buffer (124 mM NaCl, 0.8 mM KCl, 1.25 mM NaH2PO4, 1.2 mM KH2PO4, 0.67 mM MgSO4, 2.6 mM CaCl2, 10 mM glucose and 27.5 mM NaHCO3, pH 7.4). The striata is dissected and cut using a Mcllwain™ Mechanical Tissue Copper (Stoelting Co., Wood Dale, Ill.) into miniprisms of 0.3 mm/side. The microprims are transferred to ice-cold Krebs buffer, gently centrifuged, and the buffer changed to remove damaged tissue and cellular debris.
Brain miniprisms are distributed into 24 flat-bottom Eppendorf tubes and preincubated for 2 hours in 0.25 mL Krebs buffer at 37° C. using an Eppendorf Thermomixer® under a O2/CO2 atmosphere. Then the medium is replaced with fresh Krebs buffer at 37° C. with or without 0.5 mM L-histidine prepared in the same buffer. This concentration of L-histidine is similar to that reached in plasma of L-histidine-treated humans (Block et al., 1967). […]
All samples are then cooled down on ice and quickly centrifuged at 1000×g for 1 minute to separate buffer from tissue. […] An automatic autosampler Merck-Hitachi L-7200 and an automated fraction collector Gilson FC203B automatically recover internal standard dopamine peaks when UV detected into scintillation vials. […]

[3] = system: morphine/heroin seeking behaviour; test: Extinction and reinstatement of morphine/heroin seeking, mouse intravenous operant self-administration; assay type: in vivo, C57B16/J mice; conditions: L-histidine 1 g/kg or 2 g/kg; mice
Method: L-Histidine solution: L-Histidine (Sigma, H-8000) at a 155.15 g/mol concentration in 0.34 M phosphoric acid is prepared as follows. 1.5 g L-histidine are dissolved in 12 ml of 0.34 M phosphoric acid to obtain a 0.8 M solution of L-histidine at approximately pH 6. pH is verified, and 0.1 g of NaCl added to a final concentration of 0.9%. Finally, the L-histidine solution is sterilized by filtration.
Animals: Male C57B16/J mice (Charles River, France) are housed individually in controlled laboratory conditions with the temperature maintained at 21±1° C., humidity at 55±10%, and light reversal cycle (light on at 20.00 h, light off at 08.00 h). Mice are tested during the dark phase of a light reversal cycle. Behavioural tests and animal care are conducted in accordance with the standard ethical guidelines (National Institutes of Health 1995; European Communities Directive 86/609 EEC) and the protocols are approved by the local ethical committee (CEEA-PRBB).
Apparatus: The self-administration experiments are conducted in mouse operant chambers (Model ENV-307A-CT, Medical Associates, Georgia, VT, USA). The experimental chambers are equipped with a house light, ventilator fan, drug infusion pump, liquid swivel with counterbalanced arm, and two manipulanda with cue lights that are located on either side of a food dipper. The manipulanda are holes (1.2 cm diameter).
The chambers are housed in sound- and light-attenuated boxes equipped with fans to provide ventilation and white noise. […]
The catheter tubing is inserted 1.3 cm into the right jugular vein and anchored with suture. […] The patency of intravenous catheters is evaluated periodically (approximately every 6 days). Patency is also evaluated whenever drug self-administration behavior appears to deviate dramatically from that observed previously. […]
L-Histidine dosage: The first L-histidine dose is 1 g/kg. […] Dosage for other H3 histaminergic agonists or H3 histaminergic agonist precursors is determined considering the pharmacokinetic and toxicological characteristics of the compound. […]

## N[C@@H](Cc1c[nH]cn1)C(=O)O [L-histidine]
[1]
  tendency to seek cocaine (self-injections in 2 hours): diminished the tendency to seek cocaine
[2]
  dopamine release caused by nicotine stimulation: less dopamine release
[3]
  cue-induced reinstatement of morphine/heroine seeking: decreases cue-induced reinstatement
  number of sessions required to achieve extinction criteria (morphine/heroin): shortens the number of sessions
  responding during the first extinction session (morphine/heroin): decreases or delays responding
